Experiments:
[1] = test system: PC12 cells; assay: Protection against hydrogen peroxide-induced oxidative damage to PC12 nerve cells (MTT); assay type: cell-based; conditions: for protective effect on PC12 nerve cells against hydrogen peroxide (comparison in words): 2.5-50 μM, 250 μM H2O2, FIG. 16
Description: 2. Method: PC12 cells were cultured as follows. PC12 cells were inoculated into the high-glucose DMEM medium containing 10% fetal bovine serum, penicillin 100 U mL^−1, and streptomycin 100 μg mL^−1, and cultured in the cell incubator at 37° C. under 5% CO2. The medium was changed every other day. The cells were routinely trypsinized and passaged. The cells were used for experiments when they reached 70-80% confluence.
4. Oxidative damage modeling: PC12 cells in the logarithmic growth phase were inoculated into a 96-well cell culture plate at a density of 5×10^3 cells/well. H2O2 was added at different concentrations, and cultured for 4 h. MTT was added according to the above MTT assay, and A value of each well was measured. The H2O2 concentration at which the cell viability was reduced by 50% was finally selected as the modelling concentration.
Therefore, 250 μM was selected as the induction concentration of nerve cell oxidative damage.
5. Grouping and drug treatment: The experimental groups was divided into the normal blank control group, the H2O2 model group (250 μM), concentration groups (2.5 μM, 5.0 μM, 10 μM, 25 μM, 50 μM) for phthalides and their derivatives, and the positive control group (butylphthalide). Each group for phthalides and their derivatives as well as the positive control group were added with 250 μM H2O2, respectively. In the experiment, the solutions of phthalides and their derivatives were first added respectively, so that the final concentrations reached the corresponding values. After 4 h, H2O2 was added, and MTT was added after 24 h. The A value was measured to calculate the cell viability.

[2] = test system: acute cerebral ischemic infarction (MCAO model); assay: Cerebral infarction in acute ischemic stroke, suture-occluded MCAO model; assay type: in vivo, Wistar rat; conditions: for therapeutic effect on cerebral infarction (words): 3 days after modeling
Description: 1. Experimental animals: […] Wistar male rats (230-250 g), provided by Lanzhou Veterinary Research Institute, Chinese Academy of Agricultural Sciences. 2. […] MCAO model (Middle Cerebral Artery Obstruction in rats) was established through suture-occlusion, and the rats were intraperitoneally injected with 10% chloral hydrate at a dosage of 400 mg/kg for anesthetization. The rats were fixed with supine position method to expose the neck. It was shaved and the skin was cleaned for skin incision. Under gentle operations, the main blood vessels such as left common carotid artery, arteria carotis interna, and arteria carotis externa were separated. The arteria carotis externa was selected to be ligated and disconnected, to avoid the bleeding of the common carotid artery. The common carotid artery was temporarily clamped with an arterial clip. A small opening was cut at the end of arteria carotis […], and used for the placement of the suture-occlusion. The round head of the prepared suture-occlusion was held by the ophthalmic tweezer and gently inserted, with a controlled depth of about 1.8-2.0 cm. The incision was sutured conventionally. After 0.5 h of cerebral ischemia, the suture-occlusion was removed to restore the blood supply. At a certain time after administration, the rats were sacrificed. The brain tissue was stained with 0.5% 2,3,5-triphenyltetrazolium chloride […], and the cerebral infarction area was scanned and calculated, wherein the normal tissue was stained in red and the infarcted tissue was stained in white. 3. Animal grouping: The animals were grouped as follows: the model group (acute ischemia and hypoxia pathological model, administrated with an equal dosage of physiological saline containing 8% Tween-80), the sham operation group (not administrated, as the negative control, administrated with an equal dosage of physiological saline containing 8% Tween-80), the prevention group (administrated 3 days in advance), and treatment group (administrated for 3 days after the blood supply was restored from embolism). 4. Method of administration: […] Results: […] A. Negative model control, infarct area: 30.57%; B. […] C.

[3] = In vivo pharmacokinetics in rats (gavage and intravenous injection), plasma HPLC-DAD; parameters: species or system Wistar rats; T1/2ka: unit not given here; conditions: rat
Description: Certain amounts of N-cyclopropyl-3-n-butyl-3-hydroxy-ligusticum lactam and N-cyclopropyl-3-n-butyl-3-hydroxy-phthalide lactam standards were accurately weighed respectively, and dissolved and diluted in the methanol to obtain 2.0 mg/mL of standard stock solutions. Certain standard stock solutions were accurately weighed and mixed respectively, and diluted with methanol to […], 0.7813, 1.5625, 3.1250, 6.2500, 12.500, 25.0000, 50.0000, and 500.0 μg/mL. 20 uL of each sample was analyzed by HPLC system, to sequentially determine N-cyclopropyl-3-n-butyl-3-hydroxy-ligusticum lactam and N-cyclopropyl-3-n-butyl-3-hydroxy-phthalide lactam. The peak area (A) was linearly regressed with the concentration C (g/mL), to obtain the regression equation and linear range, detection limit (LOD), and quantification limit (LOQ).
1.2 Preparation method for test sample: The compound prepared according to Example 7 (the content of N-cyclopropyl-3-n-butyl-3-hydroxy-ligusticum lactam is 92.5%; and the content of the compound N-cyclopropyl-3-n-butyl-3-hydroxy-phthalide lactam is 7.5%) was prepared into the raw stock solution at a concentration of 15 mg/mL by 10% ethanol, 20% Tween 80, and 70% physiological saline. The rats were dosed based on the body weights, with a dosage of 90 mg/Kg by oral administration (by gavage) and a dosage of 40 mg/Kg by intravenous injection.
1.3 Pretreatment method for plasma sample: 0.5 mL of rat whole blood was taken and placed in a 1.5 mL centrifuge tube with 20 uL sodium heparin therein, and centrifuged at a high rotation rate of 4×10^3 r·min^−1 for 5 min. 200 μL of plasma was taken and 800 μL of dichloromethane was added. The mixture was vortexed and centrifuged for 10 min at a rotation rate of […]. The lower layer solution was separate and blown to dryness with nitrogen gas at room temperature, and then reconstituted with 300 μL of methanol. The solution was eluted, filtered, and dried to dryness with nitrogen. After adding 30 μL of methanol, the solution was centrifuged, and 20 μL of the supernatant was used to determine the peak areas by HPLC.
1.4 Determination of pharmacokinetic parameters of phthalide derivatives in rats. Twelve male Wistar rats were randomly divided into two groups, wherein 6 rats were administrated with 40 mg/kg of phthalide derivative (the intravenous injection group (i.v.)). At 0 (pre-dose), 0.167, 0.333, 0.5, 1, 2, 3, 4, and 6 hours after administration, about 500 μL of blood was collected from the Angulus oculis, respectively, and 200 μL of plasma was frozen after anticoagulation treatment and centrifugation. 6 rats in the gavage administration (po) group were administrated by 90 mg/kg of phthalide derivative. At 0 (pre-dose), 0.5, 1, 2, 3, 4, 6, 8, 10, and 12 h after administration, about 500 μL of blood was collected from the Angulus oculis, respectively, and 200 μL of plasma was frozen after anticoagulation treatment and centrifugation. The plasma samples were warmed to the room temperature before pretreatment, and 20 μL of the sample solutions were analyzed by liquid chromatography. The blood drug concentration at each time point was calculated according to the standard curve. The dose-time curve was fitted using DAS2.0 software and the pharmacokinetic parameters were calculated. FIGS. 18 and 19 show the dose-time curves by gavage administration and intravenous injection, respectively.

[4] = test system: β-amyloid-induced neurotoxicity; conditions: through p38 and PI3K/Akt signaling pathways; cited from earlier work
[5] = Rattus norvegicus, PC-12, read-out: cell viability
[6] = treatment group, dosed for 3 days after modeling, 40 mg/kg, intraperitoneal injection
[7] = male, Wistar, in vivo, iv, 40 mg/kg
[8] = male, Wistar, in vivo, po, 90 mg/kg
[9] = po (gavage), 90 mg/kg of Example 7 mixture

In the case of `CCCCC1(O)C2=C(C=CCC2)C(=O)N1C1CC1` (racemic) [ligustilide derivative, N-cyclopropyl-3-n-butyl-3-hydroxy-ligusticum lactam], the “protective effect on PC12 nerve cells against hydrogen peroxide (comparison in words)” value (from here on “protective effect on PC12 nerve cells”) [1] is reported as “strongest protective effect”, the viability at 2.5 µM [1, 5] is reported as 80% and the viability at 10 µM [1, 5] is reported as 95%. The infarct area ([2]; prevention group, pre-dosed for 3 days, modeling, dosed for another 3 days, intraperitoneal injection, model control 30.57%) was 22%, the “anti-embolic effect” value ([2]; prevention group, survived animals) was “relatively weak anti-embolic effects” and the “therapeutic effect on cerebral infarction (words)” value ([2]; treatment group, 40 mg/kg, intraperitoneal injection, 40 mg/kg) was “complete recanalization”. The “therapeutic effect on cerebral infarction (words)” value ([2]; treatment group, 40 mg/kg, intraperitoneal injection, listed as N-cyclopropyl-3-n-butyl-3-hydroxy-ligusticum lactam, 40 mg/kg) was “effectively prevent the occurrence of cerebral infarction”, the “infarct area, middle portion” value [2, 6] was 0% and the “infarct area, right side, calculated according to the edema removal method” value [2, 6] was “negative value”. For the same compound, the “infarct area, left side” value ([2]; treatment group, dosed for 3 days after modeling, 40 mg/kg, intraperitoneal injection, model control 30.57%) was 4%, the AUC(0-inf) [3, 7] was 12100 ng·h/mL and the AUC(0-t) [3, 7] was 6020 ng·h/mL. It also gave a CL1 [3, 7] of 5445.044 L/h/kg, a CL2 [3, 7] of 20518.475 L/h/kg and a K10 [3, 7] of 1.456 h⁻¹. For the same compound, the K12 [3, 7] was 5.488 h⁻¹, the K21 [3, 7] was 1.17 h⁻¹ and the “R_AUC(t/∞)” value [3, 7] was 49.7%. It also gave a V1 [3, 7] of 3739.124 L/kg, a V2 [3, 7] of 17537.504 L/kg and a t1/2α [3, 7] of 0.088 h. For the same compound, the t1/2β [3, 7] was 3.213 h, the AUC(0-inf) [3, 8] was 37100 ng·h/mL and the AUC(0-t) [3, 8] was 35300 ng·h/mL. For the same compound, the CL1 [3, 8] was 2719.904 L/h/kg, the CL2 [3, 8] was 1163.858 L/h/kg and the CL3 [3, 8] was 65.258 L/h/kg. The Cmax [3, 8] was 8820 ng/mL, the K10 [3, 8] was 3.763 h⁻¹ and the K12 [3, 8] was 1.61 h⁻¹. For the same compound, the K13 [3, 8] was 0.09 h⁻¹, the K21 [3, 8] was 0.684 h⁻¹ and the K31 [3, 8] was 0.272 h⁻¹. The Ka [3, 8] was 4.021 h⁻¹, the “R_AUC(t/∞)” value [3, 8] was 95.4% and the T1/2ka [3, 8] was 0.172. For the same compound, the Tmax [3, 8] was 1.2 h, the V1 [3, 8] was 722.758 L/kg and the V2 [3, 8] was 1701.61 L/kg. For the same compound, the V3 [3, 8] was 240.115 L/kg, the t1/2α [3, 8] was 0.122 h and the t1/2β [3, 8] was 1.478 h. It also gave a t1/2γ [3, 8] of 2.643 h.
In the case of `CCCCC1OC(=O)c2ccccc21` (centres unmarked) [butylphthalide, reference compound], the cell viability ([1]; drug positive control group, 250 μM H2O2, concentration not given) is reported as 68%.
In the case of `CCC/C=C1\OC(=O)C2=C1CCC=C2` [ligustilide, reference compound], the “protective effect on PC12 nerve cells” value [1] is listed as “stronger than that of n-butenylphthalide” and the “concentration at which β-amyloid-induced neurotoxicity is inhibited” value [4] is listed as 1 to 30 µM.
For `CCCCC1(O)c2ccccc2C(=O)N1C1CC1` (centres unmarked) [n-butenylphthalide derivative, N-cyclopropyl-3-n-butyl-3-hydroxy-phthalide lactam], the “protective effect on PC12 nerve cells” value [1] was “almost the same protective effects”, the CL1 [3, 9] was 893.769 L/h/kg and the CL2 [3, 9] was 802.825 L/h/kg. It also gave a CL3 [3, 9] of -50.58 L/h/kg, a K10 [3, 9] of 1.689 h⁻¹ and a K12 [3, 9] of 1.517 h⁻¹. The K13 [3, 9] was -0.096 h⁻¹, the K21 [3, 9] was 0.543 h⁻¹ and the K31 [3, 9] was 0.167 h⁻¹. The Ka [3, 9] was 2.425 h⁻¹, the “R_AUC(t/∞)” value [3, 9] was 89.9% and the T1/2ka [3, 9] was 0.286. The Tmax [3, 9] was 1.768 h, the V1 [3, 9] was 529.323 L/kg and the V2 [3, 9] was 1478.868 L/kg. For the same compound, the V3 [3, 9] was -302.598 L/kg, the t1/2α [3, 9] was 0.204 h and the t1/2β [3, 9] was 3.029 h. It also gave a t1/2γ [3, 9] of 3.513 h.

From patent US11919857B2, “Phthalide derivative, preparation method and use thereof” (LANZHOU INSTITUTE OF CHEMICAL PHYSICS, CHINESE ACADEMY OF …, priority 2018, dated 2024)
